Measurements taken from US20120021079A1, “Garcinia Mangostana L. and Iridoid Based Formulations” (priority 2010, published 2012).

Key:
E. coli PQ37 [1] = test: Anti-genotoxicity test (SOS-chromotest with 4NQO, Example Three); assay type: cell-based; settings: for induction factor of 4NQO plus iridoid versus vehicle blank: 250 μg mL^−1 iridoid plus 1.25 μg mL^−1 4NQO; for Induction factor: 250 μg ml^−1 DAA or AA together with 1.25 μg ml^−1 4NQO, E. coli PQ37
Method: The primary DNA damage test was performed again, similar to the method described above. […] Induction factors were calculated in the same manner as described above.

E. coli PQ37 [2] = assay type: cell-based; settings: 250 ug mL^−1 iridoid plus 1.25 ug mL^−1 4NQO; blank = 1
Method: The SOS-chromotest in E. coli PQ37 was used to determine the potential for iridoids in noni fruit from French Polynesia to prevent primary DNA damage. […] Replicate samples were evaluated. […] Following incubation with the samples, 5-bromo-4-chloro-3-indolyl-β-D-galactopyranoside was added to the wells to detect β-galactosidase enzyme activity, which is induced during SOS repair of damaged DNA. The samples were again incubated for 90 minutes and the absorbances of the samples, blank and positive control were measured at 620 nm with a microplate reader. The β-galactosidase enzyme activity induction factor of each material was calculated by dividing the absorbance of the sample at 620 nm by that of the blank, while also correcting for cell viability.

[3] = Intra- and inter-day precision and stability assays of iridoids by HPLC-PDA; assay type: physicochemical; settings: 3 consecutive days, HPLC sample solutions
Method: The limits of detection (LOD) and quantitation (LOQ) were defined as the lowest concentrations of analytes in a sample that can be detected and quantified. These LOD and LOQ limits were determined on the basis of signal-to-noise ratios (S/N) of 3:1 and 10:1, respectively. The working solutions of standards 1 and 2 for LOD and LOQ were prepared by diluting them sequentially. The intra- and inter-day precision assays, as well as stability tests were performed by following the method applied to the sample analysis for 3 consecutive days. Accuracy of the method (recovery) was assessed by the recovery percentage of iridoids 1 and 2 in the spiked samples. […] The recovery percentage was calculated using the ratio of concentration detected (actual) to those spiked (theoretical). Variation was evaluated by the relative standard deviation (RSD) of triplicate injections in the HPLC experiments.
The limits of detection (LOD) and quantitation (LOQ) were defined as the lowest concentrations of analytes in a sample that can be detected and quantified. These LOD and LOQ limits were determined on the basis of signal-to-noise ratios (S/N) of 3:1 and 10:1, respectively. […] Repeatability is the degree of agreement between results, when experimental conditions are maintained as constant as possible, and is expressed as the relative standard deviation (RSD) of replicates. […]

O=C(O)C1=CO[C@@H](O[C@@H]2O[C@H](CO)[C@@H](O)[C@H](O)[C@H]2O)[C@@H]2C(CO)=C[C@H](O)[C@H]12 [DAA, deacetylasperulosidic acid]
induction factor of 4NQO plus iridoid versus vehicle blank (E. coli PQ37 [1]): no statistical difference from that of the vehicle blank
Induction factor (E. coli PQ37 [1]): 1.08 ± 0.12
induction factor (mean±standard deviation) (E. coli PQ37 [2]): 0.98±0.02
stability during investigation period [3]: stable during investigation period

CC(=O)OCC1=C[C@H](O)[C@@H]2C(C(=O)O)=CO[C@@H](O[C@@H]3O[C@H](CO)[C@@H](O)[C@H](O)[C@H]3O)[C@H]12 [AA, asperulosidic acid]
induction factor of 4NQO plus iridoid versus vehicle blank (E. coli PQ37 [1]): no statistical difference from that of the vehicle blank
Induction factor (E. coli PQ37 [1]): 1.06 ± 0.03
stability during investigation period [3]: stable during investigation period
